Data taken from the supplement of paper PMC10307832.

Assays:
Assay in all cases: relative viability (nuclei count vs DMSO), 5 days (fraction); higher = more cells survive
BI-D1870 + AZD7762 = compound: CC(C)CCN1c2nc(Nc3cc(F)c(O)c(F)c3)ncc2N(C)C(=O)C1C [BI-D1870] + NC(=O)Nc1cc(-c2cccc(F)c2)sc1C(=O)N[C@H]1CCCNC1 [AZD7762] (partner 0.2 µM)
In short: (§1)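 Lung cancer cell lines in 1536-well plates were dosed by pin tool the day after seeding, either with one drug alone or with a fixed anchor-drug dose plus five library-drug doses (not always all listed) in √10 steps. After 5 days, cells were fixed and their nuclei stained in one step (final 0.05% Triton X-100, 1% formaldehyde, 1 ug/ml Hoechst), then counted on 4× images. Relative viability is the nuclei count in treated wells divided by that in vehicle wells. Values are medians of duplicate plates.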

BI-D1870 + Luminespib = compound: CC(C)CCN1c2nc(Nc3cc(F)c(O)c(F)c3)ncc2N(C)C(=O)C1C [BI-D1870] + CCNC(=O)c1noc(-c2cc(C(C)C)c(O)cc2O)c1-c1ccc(CN2CCOCC2)cc1 [Luminespib] (partner 0.01 µM)
In short: as §1

Zebularine + Palbociclib = compound: O=c1ncccn1[C@@H]1O[C@H](CO)[C@@H](O)[C@H]1O [Zebularine] + CC(=O)c1c(C)c2cnc(Nc3ccc(N4CCNCC4)cn3)nc2n(C2CCCC2)c1=O [Palbociclib] (partner 0.5 µM)
In short: as §1

BI-D1870 + Palbociclib = compound: CC(C)CCN1c2nc(Nc3cc(F)c(O)c(F)c3)ncc2N(C)C(=O)C1C [BI-D1870] + CC(=O)c1c(C)c2cnc(Nc3ccc(N4CCNCC4)cn3)nc2n(C2CCCC2)c1=O [Palbociclib] (partner 0.5 µM)
In short: as §1

Cell Line	relative viability (BI-D1870 + AZD7762; first compound 0.04 µM)	relative viability (BI-D1870 + AZD7762; first compound 0.1265 µM)	relative viability (BI-D1870 + AZD7762; first compound 0.4 µM)	relative viability (BI-D1870 + AZD7762; first compound 1.265 µM)	relative viability (BI-D1870 + AZD7762; first compound 4 µM)	relative viability (BI-D1870 + Luminespib; first compound 0.04 µM)	relative viability (BI-D1870 + Luminespib; first compound 0.1265 µM)	relative viability (BI-D1870 + Luminespib; first compound 0.4 µM)	relative viability (BI-D1870 + Luminespib; first compound 1.265 µM)	relative viability (BI-D1870 + Luminespib; first compound 4 µM)	relative viability (Zebularine + Palbociclib; first compound 1 µM)	relative viability (Zebularine + Palbociclib; first compound 3.162 µM)	relative viability (Zebularine + Palbociclib; first compound 10 µM)	relative viability (Zebularine + Palbociclib; first compound 31.62 µM)	relative viability (Zebularine + Palbociclib; first compound 100 µM)	relative viability (BI-D1870 + Palbociclib; first compound 0.04 µM)	relative viability (BI-D1870 + Palbociclib; first compound 0.1265 µM)	relative viability (BI-D1870 + Palbociclib; first compound 0.4 µM)	relative viability (BI-D1870 + Palbociclib; first compound 1.265 µM)	relative viability (BI-D1870 + Palbociclib; first compound 4 µM)
HCC-44	1.02	0.988	1	1.04	1.04	1.46	1	0.986	1.26	0.695	0.945	0.998	1.07	1.16	0.5	0.966	0.901	0.919	1.01	0.946
HCC-827	0.233	0.295	0.173	0.223	0.185	0.629	0.672	0.681	0.736	0.714	0.555	0.551	0.424	0.485	0.339	0.444	0.431	0.421	0.446	0.432
NCI-H1623						0.597	0.521	0.625	0.462	0.499										
NCI-H2347	0.811	0.768	0.798	0.933	0.822	0.738	0.376	0.367	0.48	0.402	0.471	0.411	0.414	0.471	0.338	0.385	0.426	0.407	0.453	0.4
PC-14	0.449	0.301	0.361	0.344	0.316	0.237	0.279	0.126	0.233	0.119	0.627	0.417	0.175	0.103	0.118	0.56	0.468	0.474	0.356	0.138
NCI-H1651	0.511	0.491	0.395	0.465	0.403	0.902	0.743	0.764	1.03	0.843	0.525	0.491	0.507	0.557	0.352	0.473	0.503	0.494	0.555	0.536
HARA	0.442	0.307	0.263	0.318	0.297	0.939	0.626	0.671	0.486	0.666	0.242	0.279		0.292	0.235	0.219	0.234	0.263	0.272	0.23
NCI-H1650						0.197	0.212	0.193	0.212	0.2	0.349	0.359	0.311	0.504	0.285	0.372	0.316	0.338	0.321	0.335
NCI-H1395	0.398	0.374	0.42	0.427	0.454	0.623	0.532	0.675	0.504	0.521	0.664	0.659	0.621	0.512	0.518	0.649	0.603	0.64	0.717	0.638
LU99A	0.414	0.3	0.429	0.655	0.49	0.263	0.223	0.276	0.258	0.229	0.483	0.433	0.331	0.278	0.187	0.431	0.363	0.387	0.37	0.331
NCI-H1355	0.954	0.732	0.7	0.849	0.551	0.802	0.675	0.649	0.737	0.573	0.402	0.371	0.384	0.303	0.252	0.384	0.368	0.403	0.446	0.392
HCC-78	0.677	0.593	0.528	0.815	0.598						0.577	0.465	0.34	0.472	0.449	0.456	0.489	0.405	0.462	0.454
NCI-H1563						0.512	0.481	0.502	0.521	0.526										
HCC-15	0.725	1.18	1.04	1.17	1.08	0.314	0.205	0.332	0.34	0.344	0.887	0.757	0.521	0.506	0.3	0.701	0.64	0.722	0.746	0.681
EKVX	0.632	0.72	0.61	0.742	0.701	0.836	0.819	0.879	0.993	0.792	0.692	0.398		0.343	0.413	0.472	0.366	0.352	0.385	0.341
NCI-H2087	1.41	1.4	1.37	1.45	1.41	0.165	0.18	0.206	0.213	0.186	0.275	0.207	0.243	0.218	0.185	0.239	0.2	0.265	0.196	0.208
LK-2	0.509	0.473	0.374	0.536	0.263	0.204	0.19	0.185	0.169	0.212	0.874	0.797	0.424	0.28	0.204	0.803	0.842	0.598	0.701	0.672
NCI-H1437	1.09	1.06	1.12	1.1	1.06	1.17	1.06	1.11	1.11	0.855	0.308	0.33	0.308	0.453	0.329	0.304	0.336	0.309	0.272	0.212
